In patent US20160083391A1, “TRICYCLIC PIPERAZINE DERIVATIVE” (Sunovion Pharmaceuticals Inc., priority 2014, published 2016):

The compounds below were run on PDE1 (assay: In vitro HTRF PDE1 inhibition assay). Details: HTRF cGMP assay, 100 nM cyclic GMP, PDE (1A3, 1B or 1C) with calmodulin, 45 minutes at 37° C.; isoform of the tabulated values not stated.
Format: biochemical
Source text: An exemplary procedure for the in vitro Homogenous Time Resolved Fluorescence assay, which can be used to determine the inhibitory action of compounds of the invention toward. PDE1 or its isoforms, follows.
The HTRF PDE1 assay utilized the HTRF (Homogenous Time Resolved Fluorescence) technology, which is based on the competition between unlabeled cyclic nucleotide and cyclic nucleotide labeled with XL665 for the binding to cyclic nucleotide-specific antibody labeled with cryptate. The HTRF signal is thus inversely proportional to the concentration of cyclic nucleotide being measured. Since phosphodiesterases break down cyclic nucleotides the HTRF signal was used to determine PDE activity.
The Cisbio cGMP HTRF assay kit (Cat no: 62GM2PEC) was utilized. Cyclic GMP was diluted to 200 nM in HTRF assay buffer (1 mM CaCl2, 10 mM MgCl2, 10 mM Tris-HCl, 0.1% BSA, pH7.4). 10 μl of compound or DMSO was diluted in 200 nM cyclic GMP solution and added to wells of a 96 well white plate to give 100 nM cyclic GMP in 1% DMSO final concentration. PDE (1A3, 1B or 1C) was diluted to 2× working concentration in HTRF assay buffer with […] Calmodulin, and 10 μl was added to initiate the reaction. The plate was then incubated for 45 minutes at 37° C. d2-Labelled cyclic GMP and anti-cGMP cryptate were diluted in 50 mM phosphate buffer, 0.8M KF, 1% Triton X100, 0.2% BSA, pH7.0. Following incubation 10 μl d2-cGMP, then 10 μl anti cGMP cryptate were added to each well and the plate was incubated for 45 minutes at room temperature. The plate was then read on Perkin Elmer Victor at 2 different FRET readings ex/emm 340 nm/665 nm and 340 nm/615 nm.
Compounds having an IC50 of <1 μM, are denoted as +++. Compounds having an IC50 of 1-10 μM, are denoted as ++. Compounds having an IC50 of >10 μM, are denoted as +.

IC50 [µM]	Structure (SMILES)
1 to 10	COc1ccc(CN2CCn3c(nn4c(C5CCOC5)ncc4c3=O)C2)cc1 (racemic) [Compound I-232, (±)-7-(4-Methoxybenzyl)-3-(tetrahydrofuran-3-yl)-8,9-dihydro-6H-imidazo[5,1-f]pyrazino[2,1-c][1,2,4]triazin-11(7H)-one]
> 10	CC(C)c1nn(C)c2c(=O)n3c(nc12)C(Cc1ccccc1)N(C)CC3 (racemic) [Compound I-42, (±)-5-Benzyl-3-isopropyl-1,6-dimethyl-5,6,7,8-tetrahydropyrazino[1,2-a]pyrazolo[4,3-d]pyrimidin-10(1H)-one]
1 to 10	CC(C)n1ncc2c(=O)n3c(nc21)CN(Cc1ccccc1-c1ccccc1)CC3 [Compound I-64, 8-([1,1′-Biphenyl]-2-ylmethyl)-1-isopropyl-6,7,8,9-tetrahydropyrazino[1,2-a]pyrazolo[3,4-d]pyrimidin-4(1H)-one]
< 1	COc1ccc(CN2CCn3c(nc4c(cnn4C(C)C)c3=O)C2)cc1F [Compound I-140, 8-(3-Fluoro-4-methoxybenzyl)-1-isopropyl-6,7,8,9-tetrahydropyrazino[1,2-a]pyrazolo[3,4-d]pyrimidin-4(1H)-one]
1 to 10	CC(C)n1ncc2c(=O)n3c(nc21)C(Cc1ccccc1)NCC3 (racemic) [Compound I-8, (±)-9-Benzyl-1-isopropyl-6,7,8,9-tetrahydropyrazino[1,2-a]pyrazolo[3,4-d]pyrimidin-4(1H)-one]
< 1	O=c1c2cnn(C3CCCC3)c2nc2n1CCN(Cc1ccc(Cl)cc1)C2 [Compound I-75, 8-(4-Chlorobenzyl)-1-cyclopentyl-6,7,8,9-tetrahydropyrazino[1,2-a]pyrazolo[3,4-d]pyrimidin-4(1H)-one]
> 10	Cc1cnc(CN2CCn3c(nc4c(cnn4C(C)C)c3=O)C2)nc1 [Compound I-198, 1-Isopropyl-8-((5-methylpyrimidin-2-yl)methyl)-6,7,8,9-tetrahydropyrazino[1,2-a]pyrazolo[3,4-d]pyrimidin-4(1H)-one]
< 1	COc1ccc(CN2CCn3c(nn4c(CC(C)C)nnc4c3=O)C2)cc1 [Compound I-213, 3-Isobutyl-7-(4-methoxybenzyl)-8,9-dihydro-6H-pyrazino[2,1-c][1,2,4]triazolo[3,4-f][1,2,4]triazin-11(7H)-one]
> 10	CC(C)c1n[nH]c2c(=O)n3c(nc12)C(Cc1ccccc1)N(C)CC3 (racemic) [Compound I-39, (±)-5-Benzyl-3-isopropyl-6-methyl-5,6,7,8-tetrahydropyrazino[1,2-a]pyrazolo[4,3-d]pyrimidin-10(1H)-one]
< 1	O=c1c2cnn(C3CCCC3)c2nc2n1CCN(c1ccc(Cl)cc1)C2 [Compound I-93, 8-(4-Chlorophenyl)-1-cyclopentyl-6,7,8,9-tetrahydropyrazino[1,2-a]pyrazolo[3,4-d]pyrimidin-4(1H)-one]
1 to 10	CCCn1ncc2c(=O)n3c(nc21)CN(c1ccc(Cl)c(Cl)c1)CC3 [Compound I-168, 8-(3,4-Dichlorophenyl)-1-propyl-6,7,8,9-tetrahydropyrazino[1,2-a]pyrazolo[3,4-d]pyrimidin-4(1H)-one]
1 to 10	COc1ccc(CCN2CCn3c(nn4c(C5CCCC5)ncc4c3=O)C2)cc1 [Compound I-244, 3-Cyclopentyl-7-(4-methoxyphenethyl)-8,9-dihydro-6H-imidazo[5,1-f]pyrazino[2,1-c][1,2,4]triazin-11(7H)-one]
1 to 10	Cc1cnc(CN2CCn3c(nc4c(cnn4C4CCCC4)c3=O)C2)cn1 [Compound I-207, 1-Cyclopentyl-8-((5-methylpyrazin-2-yl)methyl)-6,7,8,9-tetrahydropyrazino[1,2-a]pyrazolo[3,4-d]pyrimidin-4(1H)-one]
> 10	O=c1c2cnn(-c3ccccc3)c2nc2n1CCNC2 [Compound I-2, 1-Phenyl-6,7,8,9-tetrahydropyrazino[1,2-a]pyrazolo[3,4-d]pyrimidin-4(1H)-one]
1 to 10	COc1ccccc1CN1CCn2c(nc3c(cnn3CC(C)C)c2=O)C1 [Compound I-77, 1-Isobutyl-8-(2-methoxybenzyl)-6,7,8,9-tetrahydropyrazino[1,2-a]pyrazolo[3,4-d]pyrimidin-4(1H)-one]
1 to 10	CC(C)(C)c1ncc2c(=O)n3c(nn12)CN(c1ccc(Cl)cc1)CC3 [Compound I-250, 3-(tert-Butyl)-7-(4-chlorophenyl)-8,9-dihydro-6H-imidazo[5,1-f]pyrazino[2,1-c][1,2,4]triazin-11(7H)-one]
< 1	CCCn1ncc2c(=O)n3c(nc21)CN(c1ccc(Cl)cc1)CC3 [Compound I-167, 8-(4-Chlorophenyl)-1-propyl-6,7,8,9-tetrahydropyrazino[1,2-a]pyrazolo[3,4-d]pyrimidin-4(1H)-one]
> 10	O=c1c2c(Nc3ccccc3)n(Cc3ccccc3)nc2nc2n1CCNC2 [Compound I-59, 2-Benzyl-3-(phenylamino)-6,7,8,9-tetrahydropyrazino[1,2-a]pyrazolo[3,4-d]pyrimidin-4(2H)-one]
< 1	COc1ccccc1CN1CCn2c(nc3c(cnn3C3CCCC3)c2=O)C1 [Compound I-78, 1-Cyclopentyl-8-(2-methoxybenzyl)-6,7,8,9-tetrahydropyrazino[1,2-a]pyrazolo[3,4-d]pyrimidin-4(1H)-one]
1 to 10	O=c1c2cnn(C3CCCC3)c2nc2n1CCN(Cc1cncnc1)C2 [Compound I-191, 1-Cyclopentyl-8-(pyrimidin-5-ylmethyl)-6,7,8,9-tetrahydropyrazino[1,2-a]pyrazolo[3,4-d]pyrimidin-4(1H)-one]
> 10	O=c1c2cnn(-c3ccccc3)c2nc2n1CCN(Cc1ccccc1)C2 [Compound I-30, 8-Benzyl-1-phenyl-6,7,8,9-tetrahydropyrazino[1,2-a]pyrazolo[3,4-d]pyrimidin-4(1H)-one]
< 1	CC(C)c1ncc2c(=O)n3c(nn12)CN(c1ccc(C(F)(F)F)cc1)CC3 [Compound I-240]
< 1	CCOc1cccc(N2CCn3c(nn4c(C(C)C)ncc4c3=O)C2)c1 [Compound I-173, 7-(3-Ethoxyphenyl)-3-isopropyl-8,9-dihydro-6H-imidazo[5,1-f]pyrazino[2,1-c][1,2,4]triazin-11(7H)-one]
1 to 10	CC(C)n1ncc2c(=O)n3c(nc21)CN(Cc1cccc(F)c1)CC3 [Compound I-137, 8-(3-Fluorobenzyl)-1-isopropyl-6,7,8,9-tetrahydropyrazino[1,2-a]pyrazolo[3,4-d]pyrimidin-4(1H)-one]
> 10	COc1cc(CN2CCn3c(nc4c(cnn4C(C)C)c3=O)C2)ccc1F [Compound I-139, 8-(4-Fluoro-3-methoxybenzyl)-1-isopropyl-6,7,8,9-tetrahydropyrazino[1,2-a]pyrazolo[3,4-d]pyrimidin-4(1H)-one]
1 to 10	CC(C)Cn1ncc2c(=O)n3c(nc21)CN(Cc1ccccc1)CC3 [Compound I-51, 8-Benzyl-1-isobutyl-6,7,8,9-tetrahydropyrazino[1,2-a]pyrazolo[3,4-d]pyrimidin-4(1H)-one]
> 10	CC(C)n1ncc2c(=O)n3c(nc21)CN(C)C(c1ccccc1)C3 (racemic) [Compound I-107, (±)-1-Isopropyl-8-methyl-7-phenyl-6,7,8,9-tetrahydropyrazino[1,2-a]pyrazolo[3,4-d]pyrimidin-4(1H)-one]
